How the values were obtained:
[1] = test system: rhythmic bladder voiding contractions; experiment: Volume-induced rhythmic bladder voiding contractions in anaesthetized rats; type: in vivo; settings: for AMPLITUDE mm Hg before treatment / FREQUENCY No. contr./15 min before treatment: baseline; for AMPLITUDE mm Hg before treatment / AMPLITUDE mm Hg after treatment: animals with frequency reduction <50%; for AMPLITUDE mm Hg before treatment / FREQUENCY No. contr./15 min before treatment / AMPLITUDE mm Hg after treatment / FREQUENCY No. contr./15 min after treatment: mean±S.E.; for BLADDER CONTRACTIONS Disappearance time: duration of bladder quiescence, mean (S.E. in next cell)
Description: Female Sprague Dawley rats weighing 225-275 g (Crl: CD° BR, Charles River Italia) were used. The animals were housed with free access to food and water and were maintained on a forced 12 h alternating light-dark cycle at 22-24°C for at least one week, except during the experiment. The activity on the rhythmic bladder voiding contractions was evaluated according to the method of Dray (J. Pharmcol. Methods, 13:157, 1985), with some modifications as in Guarneri (Phannacol. Res., 27:173, 1993). […] The catheter was tied in place with a ligature around the external urethral orifice and was connected with conventional pressure transducers (Statham P23 ID/P23 XL). […] The bladder was then filled via the recording catheter by incremental volumes of warm (37°C) saline until reflex bladder voiding contractions occurred (usually 0.8-1.5 ml). Two parameters were recorded from the cystometrogram: the frequency of voiding contractions, calculated by counting the number of peaks/15 min of observation, and the mean amplitude of these contractions (mean height of the peaks in mmHg) in the same time period. For intravenous (i. v. ) injection of bioactive compounds, a PE 50 polyethylene tubing filled with physiological saline was inserted into the jugular vein.
Bioactivity was assessed in individual animals (using 6-10 rats per dose), by recording the number and height of the peaks for 15 min after drug injection and comparing them with those previously recorded for 15 min after the intravenous administration of vehicle alone. […] The statistical significance of changes in frequency and amplitude before and after treatment was assessed by Student's t test for paired data. Changes showing a probability P<0.01 were considered significant.
An all-or-none criterion was also used to compare bioactivity in terms of ED50 values. Rats showing a treatment-related change of ≥30% relative to the basal value were considered to be positive. Quantal dose-response curves and ED50 values were evaluated by the method of Bliss (J. Pharm. Pharmacol., 11:192, 1938).
The rapid distension of the urinary bladder in urethane-anaesthetized rats produced a series of rhythmic bladder voiding contractions whose characteristics have been described (Maggie et al., Brain Res., 380, 83, 1986; Maggi, et al., J. Pharmacol. Exp. Ther., 230, 500, 1984). The frequency of these contractions is related to the sensory afferent arm of reflex micturition and to the integrity of the micturition centre, while their amplitude is a property of the efferent arm of the reflex (Maggi et al., J. Pharmacol. Meth., 15, 157, 1986; Maggi et al., Brain Res.. 415, 1, 1987; Maggi et al., Naun. Schmied. Arch. Pharmacol., 332, 276, 1986; Maggi et al., J. Urol., 136, 696, 1986).

[2] = test system: cystometric parameters (bladder volume capacity, micturition pressure); experiment: Cystometric parameters (BVC, MP) in the conscious rat; type: in vivo, rats; settings: for BVC before treatment / MP before treatment: baseline; for BVC before treatment / MP before treatment / BVC after treatment / MP after treatment: mean±S.E.; for BVC % change / MP % change / BVC after treatment / MP after treatment: 15 min after injection
Description: Male Sprague Dawley rats (Crl: CD° BR) weighing 250-350 g were used. The animals were housed with free access to food and water and maintained on a forced 12 h alternating light-dark cycle at 22-24°C for at least one week, except during performance of the experiment.
An approximately 10 mm long midline incision was made in the shaved and cleaned abdominal wall. The urinary bladder was gently freed from adhering tissues, emptied, and then cannulated, via an incision at the dome, with a polyethylene cannula (Portex PP30), which was permanently sutured with silk thread. The cannula was exteriorized through a subcutaneous tunnel in the retroscapular area, where it was connected with a plastic adapter to avoid the risk of removal by the animal. For intravenous (i.v.) injection of test compounds, a PE 50 polyethylene tubing filled with physiological saline was inserted into the jugular vein and exteriorized in the retroscapular area.
Since cystometrographic parameters have been reported to be influenced by the time elapsed after catheter implantation […].
On the day of the experiment, the rats were placed in Bollman's cages; after a stabilization period of 20 min, the free tip of the bladder catheter was connected through a T-shaped tube to a pressure transducer (Bentley T 800/Marb P 82) and to a peristaltic pump (Gilson minipuls 2) for a continuous infusion, at the constant rate of 0.1 ml/min, of saline solution into the urinary bladder. The intraluminal pressure signal during infusion was continuously recorded on a polygraph (Battaglia Rangoni KO 380 with ADC1/T amplifier). Two urodynamic parameters were evaluated: bladder volume capacity (BVC) and micturition pressure (MP). BVC (in ml) is defined as the minimum volume infused after which detrusor contraction (followed by micturition) occurs. MP (in mmHg) is defined as the maximal intravesical pressure induced by the contraction of detrusor during micturition. Basal BVC and MP values were calculated as the means of the first two recorded cystometrograms. At this point, the infusion was interrupted and the test compounds were administered. Fifteen minutes after intravenous administration, or one hour after oral drug administration, two additional cystometrograms were recorded in each animal and the mean values of the two cystometrographic parameters were calculated.
The statistical significance of the differences in urodynamic parameter values was evaluated by Student's t test for paired data. Only changes showing a probability P<0.01 were considered to be significant.

Cc1c(-c2ccccc2)oc2c(C(=O)OCCN3CCCCC3)cccc2c1=O [Flavoxate, flavoxate]
AMPLITUDE mm Hg before treatment ([1]; 300 µg/kg i.v. group): 25.9±1.3 mm Hg | FREQUENCY No. contr./15 min before treatment ([1]; 300 µg/kg i.v. group): 9.2±1.2 No. contr./15 min | AMPLITUDE mm Hg after treatment ([1]; 300 µg/kg i.v.): 24.1±1.8 mm Hg | BLADDER CONTRACTIONS Disappearance time ([1]; 300 µg/kg i.v.): 1.70 min | FREQUENCY No. contr./15 min after treatment ([1]; 300 µg/kg i.v.): 8.8±1.7 No. contr./15 min | AMPLITUDE mm Hg before treatment ([1]; 1000 µg/kg i.v. group): 26.1±2.3 mm Hg | FREQUENCY No. contr./15 min before treatment ([1]; 1000 µg/kg i.v. group): 10.1±0.7 No. contr./15 min | AMPLITUDE mm Hg after treatment ([1]; 1000 µg/kg i.v.): 25.0±2.2 mm Hg | BLADDER CONTRACTIONS Disappearance time ([1]; 1000 µg/kg i.v.): 3.04 min | FREQUENCY No. contr./15 min after treatment ([1]; 1000 µg/kg i.v.): 8.6±0.9 No. contr./15 min | AMPLITUDE mm Hg before treatment ([1]; 3000 µg/kg i.v. group): 18.9±0.9 mm Hg | FREQUENCY No. contr./15 min before treatment ([1]; 3000 µg/kg i.v. group): 10.7±0.7 No. contr./15 min | AMPLITUDE mm Hg after treatment ([1]; 3000 µg/kg i.v.): 16.6±1.2 mm Hg | BLADDER CONTRACTIONS Disappearance time ([1]; 3000 µg/kg i.v.): 5.30 min | FREQUENCY No. contr./15 min after treatment ([1]; 3000 µg/kg i.v.): 6.5±0.7 No. contr./15 min | AMPLITUDE mm Hg before treatment ([1]; 10000 µg/kg i.v. group): 19.9±1.6 mm Hg | FREQUENCY No. contr./15 min before treatment ([1]; 10000 µg/kg i.v. group): 11.3±0.8 No. contr./15 min | AMPLITUDE mm Hg after treatment ([1]; 10000 µg/kg i.v.): 19.2±1.5 mm Hg | BLADDER CONTRACTIONS Disappearance time ([1]; 10000 µg/kg i.v.): 8.25 min | BLADDER CONTRACTIONS Disappearance time ([1]; 10000 µg/kg i.v., listed as flavoxate): 8.25 ± 1.90 min | FREQUENCY No. contr./15 min after treatment ([1]; 10000 µg/kg i.v.): 5.5±0.6 No. contr./15 min | ED (10 min disappearance of contractions) ([1]; Rattus norvegicus, iv, 10 min, extrapolated dose inducing 10 min of disappearance of the contractions, linear regression): > 10 mg/kg | ED50 ([1]; Rattus norvegicus, iv, read-out: ED50 FREQUENCY (and 95% confidence limits), i.v., quantal criterion (change ≥30% relative to basal value)): 2.65 mg/kg | BVC before treatment ([2]; 300 µg/kg i.v. group): 0.76 ± 0.11 mL | MP before treatment ([2]; 300 µg/kg i.v. group): 89.2±10.7 mmHg | BVC % change ([2]; 300 µg/kg i.v.): +14% | MP % change ([2]; 300 µg/kg i.v.): +7% | BVC after treatment ([2]; 300 µg/kg i.v.): 0.87 ± 0.11 mL | MP after treatment ([2]; 300 µg/kg i.v.): 95.0±10.9 mmHg | BVC before treatment ([2]; 1000 µg/kg i.v. group): 0.88 ± 0.15 mL | MP before treatment ([2]; 1000 µg/kg i.v. group): 90.4±10.7 mmHg | BVC % change ([2]; 1000 µg/kg i.v.): +26% | MP % change ([2]; 1000 µg/kg i.v.): -12% | BVC after treatment ([2]; 1000 µg/kg i.v.): 1.11 ± 0.16 mL | MP after treatment ([2]; 1000 µg/kg i.v.): 80.1±11.1 mmHg | BVC before treatment ([2]; 3000 µg/kg i.v. group): 0.77 ± 0.08 mL | MP before treatment ([2]; 3000 µg/kg i.v. group): 72.6±9.3 mmHg | BVC % change ([2]; 3000 µg/kg i.v.): +39% | MP % change ([2]; 3000 µg/kg i.v.): +4% | BVC after treatment ([2]; 3000 µg/kg i.v.): 1.07 ± 0.12 mL | MP after treatment ([2]; 3000 µg/kg i.v.): 75.2±9.5 mmHg | effect on MP (in words) ([2]; conscious rats, i.v., NAN-190 up to the highest administrable dose of 300 µg/kg): inactive

From patent EP0906100B1, “USE OF 5-HT 1A? RECEPTOR ANTAGONISTS FOR THE TREATMENT OF URINARY INCONTINENCE” (RECORDATI S.A., priority 1996, dated 1997)
